The results in this text go back to patent publication US6933302B2, “Nitrogen-based homo-camptothecin derivatives” (California Pacific Medical Center, priority 2002, dated 2005).

The assay concerns VM46 cells. As to the kind of experiment: Cell colony formation assay. It is filed as cell-based. To be noted: 72 hours drug incubation at 37° C., colonies counted after 8 days. Here is the method:
This example provides directions for growing cells and testing compounds of the invention for their effect on the growth of the cells. All cells can be purchased from DCTDC Tumor Repository, NCI, NIH.
Cell Colony Formation Assay
Five hundred cells (VM46) are plated in 60 mm Petri dishes containing 2.7 ml of medium (modified McCoy's 5a medium containing 10% fetal bovine serum and 100 units/ml penicillin and […]). The cells are incubated in a CO2 incubator at 37° C. for 5 hours for attachment to the bottom of Petri dishes. Drugs are made fresh in medium at ten times the final concentration, and then 0.3 ml of this stock solution is added to the 2.7 ml of medium in the dish. The cells are then incubated with drugs for 72 hours at 37° C. At the end of the incubation the drug-containing media are decanted, the dishes are rinsed with 4 ml of Hank's Balance Salt Solution (HBSS), 5 ml of fresh medium is added, and the dishes are returned to the incubator for colony formation. The cell colonies are counted using colony counter after incubation for 8 days for VM46 cells. Cell survival (%) is calculated .
Values of ID50 (the drug concentration producing 50% inhibition of colony formation) may be determined for each tested compound. Results are shown in Table I for hCPT as a compound of this invention taught in Example 16.

As for `CCC1(OC(=O)CCN2CCCCC2)CC(=O)OCc2c1cc1n(c2=O)Cc2cc3ccccc3nc2-1` (centres unmarked) [Example 021219, Homocamptothecin-20-O ester of 1-piperidine Propionic Acid], the “Value of ID50 (drug concentration producing 50% inhibition of colony formation)” value worked out at 3.5 NM.

With `CC[C@@]1(O)CC(=O)OCc2c1cc1n(c2=O)Cc2cc3ccccc3nc2-1` [hCPT, homo-camptothecin], the “Value of ID50 (drug concentration producing 50% inhibition of colony formation)” value came to 4 NM.
